Source: ChEMBL document CHEMBL1201862, “PubChem BioAssay data set” (2004)
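Following 48 hours of exposure in 96-well plates, responses at five concentrations were used to interpolate endpoints linearly. Abbreviation: GI50, concentration required for 50% inhibition of growth.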 Calls of active or inactive are those of the source. No stated cut-off is given here; in the data, active = GI50 up to about 1.1 µM and inactive = higher.

Columns and labels:
Experiment in all cases: NCI-60 cell line screen, 48 h
[1] = system: UO-31
[2] = system: HCT-15
[3] = system: NCI-H23
[4] = system: SW-620
[5] = system: A549
[6] = system: SK-MEL-28
[7] = system: SF-295
[8] = system: SNB-75
[9] = system: OVCAR-5
[10] = system: MCF7
[11] = system: U-251
[12] = system: IGROV-1
[13] = system: DU-145
[14] = system: NCI-H226
[15] = system: EKVX
[16] = system: TK-10
[17] = system: A498
[18] = system: NCI-H460
[19] = system: OVCAR-4
[20] = system: UACC-257

Row | SMILES | GI50 [1] | GI50 [2] [µM] | GI50 [3] | GI50 [4] | GI50 [5] | GI50 [6] | GI50 [7] | GI50 [8] | GI50 [9] | GI50 [10] | GI50 [11] | GI50 [12] | GI50 [13] | GI50 [14] | GI50 [15] | GI50 [16] | GI50 [17] | GI50 [18] | GI50 [19] | GI50 [20]
1 | CCOC(=O)O/C(=C\c1ccc(OC)cc1)c1c(OC(=O)OCC)n(C(=O)OCC)c2ccccc12 | 29.1 µM (inactive) | 7.05 | 27.9 µM (inactive) | 24.3 µM (inactive) | 34.4 µM (inactive) | 19.6 µM (inactive) | 28.4 µM (inactive) | 25.1 µM (inactive) | 76.9 µM (inactive) | 25.1 µM (inactive) | 24.7 µM (inactive) | 35.7 µM (inactive) | 42.2 µM (inactive) | 32.9 µM (inactive) | 88.9 µM (inactive) | 31.3 µM (inactive) | 14.2 µM (inactive) | 15.1 µM (inactive) | 32.4 µM (inactive) | 34.5 µM (inactive)
2 | CCOC(=O)[C@@]12C[C@](/C=C/OC)(O[Si](C)(C)C)[C@@]13c1cc(OC)c(OC)cc1CCN3C(=O)C2=O | > 100 µM (inactive) | > 100 | > 100 µM (inactive) | > 100 µM (inactive) | > 100 µM (inactive) | > 100 µM (inactive) | > 100 µM (inactive) | > 100 µM (inactive) | > 100 µM (inactive) | > 100 µM (inactive) | > 100 µM (inactive) | > 100 µM (inactive) | > 100 µM (inactive) | > 100 µM (inactive) | > 100 µM (inactive) | > 100 µM (inactive) | > 100 µM (inactive) | > 100 µM (inactive) | > 100 µM (inactive) | > 100 µM (inactive)
3 | Cc1nc2nnc(CCCCCCCCc3nnc4nc(C)[nH]n34)n2[nH]1 | > 100 µM (inactive) | > 100 | > 100 µM (inactive) | > 100 µM (inactive) | > 100 µM (inactive) | > 100 µM (inactive) | > 100 µM (inactive) | > 100 µM (inactive) | > 100 µM (inactive) | > 100 µM (inactive) | > 100 µM (inactive) | > 100 µM (inactive) | > 100 µM (inactive) | > 100 µM (inactive) | > 100 µM (inactive) | > 100 µM (inactive) | > 100 µM (inactive) | > 100 µM (inactive) | > 100 µM (inactive) | > 100 µM (inactive)
4 | O=C1CS(=O)(=O)C(c2cccc(Oc3ccccc3)c2)N1c1ccccc1 (stereo not given) | 29.9 µM (inactive) | 22 | 25.1 µM (inactive) | 31.5 µM (inactive) | 35.1 µM (inactive) | 26.2 µM (inactive) | 30.5 µM (inactive) | 34.1 µM (inactive) | 31.6 µM (inactive) | 14.3 µM (inactive) | 16.6 µM (inactive) | – | 48 µM (inactive) | 21.4 µM (inactive) | 16.4 µM (inactive) | 26.6 µM (inactive) | 17.9 µM (inactive) | 18.7 µM (inactive) | 26.1 µM (inactive) | 18.6 µM (inactive)
5 | C=C(Br)CN(C#N)CC(=C)Br | > 100 µM (inactive) | > 100 | > 100 µM (inactive) | > 100 µM (inactive) | > 100 µM (inactive) | > 100 µM (inactive) | > 100 µM (inactive) | > 100 µM (inactive) | > 100 µM (inactive) | > 100 µM (inactive) | > 100 µM (inactive) | > 100 µM (inactive) | > 100 µM (inactive) | > 100 µM (inactive) | > 100 µM (inactive) | > 100 µM (inactive) | > 100 µM (inactive) | > 100 µM (inactive) | > 100 µM (inactive) | > 100 µM (inactive)
6 | CCC1CN(C(=O)c2ccccc2)C(Cc2c[nH]c3ccccc23)C(=O)C1CC(=O)OC (stereo not given) | 35.2 µM (inactive) | > 100 | 74.6 µM (inactive) | > 100 µM (inactive) | – | > 100 µM (inactive) | > 100 µM (inactive) | 88.3 µM (inactive) | > 100 µM (inactive) | 57.5 µM (inactive) | 41.6 µM (inactive) | 72.4 µM (inactive) | > 100 µM (inactive) | > 100 µM (inactive) | 77.4 µM (inactive) | > 100 µM (inactive) | 1.09 µM (active) | 43.4 µM (inactive) | > 100 µM (inactive) | > 100 µM (inactive)
7 | O=C(OCc1ccccc1)C(Cc1ccc(OCc2ccccc2)cn1)NC(=O)C(F)(F)F (stereo not given) | 65.5 µM (inactive) | 46.3 | 86.9 µM (inactive) | > 100 µM (inactive) | 62.8 µM (inactive) | > 100 µM (inactive) | > 100 µM (inactive) | 3.01 µM (inactive) | > 100 µM (inactive) | > 10 µM (inactive) | 72.3 µM (inactive) | > 100 µM (inactive) | > 100 µM (inactive) | > 100 µM (inactive) | > 100 µM (inactive) | > 100 µM (inactive) | > 100 µM (inactive) | > 100 µM (inactive) | > 100 µM (inactive) | > 100 µM (inactive)
8 | COc1ccccc1CNCc1nc2ccccc2[nH]1 | > 100 µM (inactive) | > 100 | > 100 µM (inactive) | > 100 µM (inactive) | > 100 µM (inactive) | > 100 µM (inactive) | > 100 µM (inactive) | > 100 µM (inactive) | > 100 µM (inactive) | > 100 µM (inactive) | > 100 µM (inactive) | > 100 µM (inactive) | > 100 µM (inactive) | > 100 µM (inactive) | 92.9 µM (inactive) | > 100 µM (inactive) | > 100 µM (inactive) | > 100 µM (inactive) | > 100 µM (inactive) | > 100 µM (inactive)
9 | Cn1c2c3ccc(Cl)cc3nc-2c(Cl)c2ccccc21 | 16.3 µM (inactive) | 14.7 | 13.4 µM (inactive) | 11.9 µM (inactive) | 27.3 µM (inactive) | 17.7 µM (inactive) | 15.2 µM (inactive) | 17.1 µM (inactive) | 17.3 µM (inactive) | 26.2 µM (inactive) | 10.9 µM (inactive) | 16.6 µM (inactive) | 15.1 µM (inactive) | 23 µM (inactive) | 22.9 µM (inactive) | 16.6 µM (inactive) | 19.9 µM (inactive) | 12.7 µM (inactive) | 17.1 µM (inactive) | 17.5 µM (inactive)
10 | N#Cc1cccc(C2ON=C(c3ccc([N+](=O)[O-])cc3)N2C23CC4CC(CC(C4)C2)C3)c1 (stereo not given) | 24.1 µM (inactive) | 66.8 | > 100 µM (inactive) | > 100 µM (inactive) | 27.4 µM (inactive) | > 100 µM (inactive) | 79.8 µM (inactive) | > 100 µM (inactive) | 3.21 µM (inactive) | 34.4 µM (inactive) | > 100 µM (inactive) | > 100 µM (inactive) | > 100 µM (inactive) | > 100 µM (inactive) | > 100 µM (inactive) | > 100 µM (inactive) | > 100 µM (inactive) | > 100 µM (inactive) | 26.9 µM (inactive) | > 100 µM (inactive)
11 | Cc1nc(C)c(C(=O)NNC(=O)c2ccccc2)cc1C(=O)NNC(=O)c1ccccc1 | > 100 µM (inactive) | > 100 | > 100 µM (inactive) | > 100 µM (inactive) | > 100 µM (inactive) | – | > 100 µM (inactive) | > 10 µM (inactive) | > 100 µM (inactive) | > 100 µM (inactive) | > 100 µM (inactive) | > 10 µM (inactive) | > 100 µM (inactive) | > 100 µM (inactive) | > 10 µM (inactive) | > 100 µM (inactive) | > 100 µM (inactive) | > 100 µM (inactive) | > 100 µM (inactive) | > 100 µM (inactive)
12 | CC(NC(=O)C(N)CC(=O)O)NC(=O)C1CCC1 (stereo not given) | > 100 µM (inactive) | > 100 | > 100 µM (inactive) | > 100 µM (inactive) | > 100 µM (inactive) | > 100 µM (inactive) | – | > 100 µM (inactive) | > 100 µM (inactive) | > 100 µM (inactive) | > 100 µM (inactive) | > 10 µM (inactive) | > 100 µM (inactive) | > 100 µM (inactive) | > 100 µM (inactive) | > 100 µM (inactive) | > 100 µM (inactive) | > 100 µM (inactive) | > 100 µM (inactive) | > 100 µM (inactive)
13 | CC(NNC(=O)c1cc[n+]([BH2-]C#N)cc1)c1cccc(F)c1 (stereo not given) | > 100 µM (inactive) | > 100 | – | > 100 µM (inactive) | > 100 µM (inactive) | > 100 µM (inactive) | > 100 µM (inactive) | > 100 µM (inactive) | > 100 µM (inactive) | > 100 µM (inactive) | > 100 µM (inactive) | > 100 µM (inactive) | > 100 µM (inactive) | > 100 µM (inactive) | > 100 µM (inactive) | > 100 µM (inactive) | > 100 µM (inactive) | > 100 µM (inactive) | 69.8 µM (inactive) | > 100 µM (inactive)
14 | C[O+]=C1C=CC(=C2SC(c3ccccc3)(c3ccccc3)c3ccccc32)C=C1.[O-][Cl+3]([O-])([O-])[O-] | 10 µM (inactive) | 10.9 | 21.1 µM (inactive) | 31.6 µM (inactive) | 22.5 µM (inactive) | 21.1 µM (inactive) | 22.1 µM (inactive) | 26.9 µM (inactive) | 19.5 µM (inactive) | 25.4 µM (inactive) | 22.6 µM (inactive) | 33 µM (inactive) | 26.2 µM (inactive) | 14.5 µM (inactive) | 17.8 µM (inactive) | 23.4 µM (inactive) | 24 µM (inactive) | 14 µM (inactive) | 14.6 µM (inactive) | 16.6 µM (inactive)
